Each structure is given as a SMILES string. Marks after values point to notes of the source that are not given here.

The text below walks through data of US8574831B2, “Mutational profiles in HIV-1 reverse transcriptase correlated with phenotypic drug resistance” (Virco N.V., priority 2000, dated 2013).

What all share (format): cell-based
The subject of experiment [1] is patient-derived recombinant HIV-1 variants (protease/RT from patient plasma). The experiment can be described thus: Recombinant virus assay (ANTIVIROGRAM), MT-4 cell viral cytopathic effect (CPE) protection assay, patient-derived recombinant viruses (Example 2). As to conditions: for level of resistance: samples with AZT and 3TC resistance mutations plus T69A/N or V175M. Here is the method:
FIG. 1: Nucleoside analogue susceptibility of MDIR patient-derived recombinant HIV variants. Recombinant viruses were produced from patient plasma samples as described in Example 2 and tested for susceptibility to (a) d4T, (b) ddC and (c) ddl. […] Error bars indicate standard errors. Note that the total number (n=310) is higher than the 302 MDR samples described because a small minority were 69D/N and 75M double mutants and are represented in both groups.
Viral RNA was extracted from 200 μL patient plasma using the QIAAMPV® Viral RNA Extraction Kit (Qiagen, Hilden, Germany), according to the manufacturers instructions. cDNA encompassing part of the pol gene was produced using EXPAND™ reverse transcriptase (Boehringer Mannheim) as described previously. See Hertogs K., et al., Antimicrob. Agents Chemother. 42:269-276 (1998). A 2.2 kb fragment encoding the protease and RT regions was then amplified by nested polymerase chain reaction (PCR) using PCR primers and conditions as described. Id. This genetic material was subsequently used in both phenotyping and genotyping experiments.
MT-4 cells (Harada S., et al, Science 229:563-566(1985).) were co-transfected with pol gene PCR fragments and the protease-RT deleted HIV-1 molecular clone, pGEM3deltaPRT, as described. See Hertogs K., et al., Antimicrob. Agents Chemother. 42:269-276 (1998). […] Phenotypic susceptibility to nucleoside analogues was determined using an MT-4 cell viral cytopathic effect (CPE) protection assay as described. Id. Fold resistance values were derived by dividing the mean IC50 for a patient's recombinant virus by the mean IC50 for wild-type control virus (strain HXB2-D). The PCR products obtained from patient plasma samples were genotyped by dideoxynucleotide-based sequence analysis. Samples were sequenced using the BIGDYE™ terminator kit (Applied Biosystems, Inc. (ABI)) and resolved on an ABI 377 DNA sequencer.
From this analysis, 302 samples were identified with four-fold or greater increases in IC50 (relative to a wild-type control virus) to at least four of these inhibitors. […]
(Damage to the host cells serves as the signal in cytopathic effect assays.)

The subject of experiment [2] is HIV-1 HXB2-D variants with site-directed RT mutations. The experiment can be described thus: MT-4 cell CPE protection assay, HIV-1 variants constructed by site-directed mutagenesis (Example 2). As to conditions: for susceptibility: 69S-[S-S] insert plus AZT resistance mutations (210W and 215Y); for resistance: T69A or V75M in a background of AZT mutations. Here is the method: Mutations in the RT coding region were created by site-directed mutagenesis of a wild-type HXB2-D EcoRl-Pstl restriction enzyme fragment, encompassing the HIV-1 pol gene and cloned into pGEM3 (Promega). Single and multiple nucleotide changes were introduced into RT using the EXSITE™ mutagenesis kit (Strategene). All mutant clones were verified by DNA sequence analysis of the entire RT. PCR fragments were prepared from the mutated clones and the altered RT coding regions were transferred into the HIV-1 HXB2-D genetic background by homologous recombination as described above. The susceptibility of these recombinant viruses to nucleoside analogues was subsequently determined by the MT-4 cell CPE protection assay. Id.

The subject of experiment [3] is HIV-1 HXB2 mutants with site-directed mutations in RT. The experiment can be described thus: Recombinant virus assay, drug susceptibility of mutants with site-directed RT mutations (Example 1). As to conditions: for Fold resistance: standard error in parentheses. As to the method:
Plasma samples were obtained from HIV-1-infected individuals from routine clinical practice in Europe and the US and were shipped to the laboratory on dry ice and stored at −70° C. until analysis. Phenotypic analysis was performed using the recombinant virus assay. See Kellam, P., and B. A. Larder. Antimicrob. Agents Chemother. 38:23-30 (1994); Hertogs, K., et al., Antimicrob. Agents Chemother. 42:269-276 (1998); Briefly, protease (PR) and reverse transcriptase (RT) coding sequences were amplified from patient-derived viral RNA with HIV-1 specific primers. After homologous recombination of amplicons into a PR-RT deleted proviral clone, the resulting recombinant viruses were harvested, titrated and used for in vitro susceptibility testing to antiretroviral drugs.
For the modeling studies, mutations were generated in the RT gene of HXB2, a wild-type laboratory HIV-1 strain, using the QuikChange^J Site-Directed Mutagenesis Kit, […]^7, Stratagene Cloning systems, La Jolla, Calif., USA.

Regarding `Nc1ccn([C@H]2CC[C@@H](CO)O2)c(=O)n1` [ddC, zalcitabine], the “level of resistance” value in experiment [1] was “only modest levels of resistance”. In experiment [2], the “susceptibility” value is on record as “decreased susceptibility” and the “resistance” value was “little or no resistance”.

Take `Cc1cn([C@H]2C=C[C@@H](CO)O2)c(=O)[nH]c1=O` [d4T, stavudine]: the “level of resistance” value in experiment [1] is “only modest levels of resistance”. In experiment [2], the “susceptibility” value is listed as “decreased susceptibility” and the “resistance” value is reported as “little or no resistance”.

In the case of `Nc1ccn([C@@H]2CS[C@H](CO)O2)c(=O)n1` [3TC, lamivudine], in experiment [1] (all four MDR groups (151 cluster, 69D/N, 75M, codon 69 insertions)), the “mean fold increase in IC50” value was above 30 fold. Also, the Fold resistance in experiment [3] (SDM05: 41L, 210W, 211K, 214F, 215Y) is listed as 4 (0.3)^c fold; in experiment [3] (SDM18: 41L, 67N, 210W, 211K, 214F, 215Y) it was 2 (0.6) fold; in experiment [3] (SDM19: 41L, 67N, 69D, 210W, 211K, 214F, 215Y), 4 (0.7) fold; in experiment [3] (SDM22: 184V, 41L, 210W, 211K, 214F, 215Y) it was 78 (16.3) fold; in experiment [3] (SDM23: 184V), 82 (13.6) fold; in experiment [3] (SDM24: 184V, 69S-S-S, 210W, 211K, 214D, 215Y), 85 (14.2) fold. For the same molecule, the Fold resistance in experiment [3] (SDM26: 184V, 41L, 67N, 210W, 211K, 214F, 215Y) is recorded as 72 (13.8) fold; in experiment [3] (SDM28: 44D), 1 (0.1) fold; in experiment [3] (SDM29: 1181), 2 (0.2) fold; in experiment [3] (SDM30: 44D, 1181), 3 (0.3) fold; in experiment [3] (SDM31: 44D, 41L, 67N, 210W, 211K, 214F, 215Y), 22 (2.5) fold; in experiment [3] (SDM32: 44D, 41L, 67N, 69D, 210W, 211K, 214F, 215Y), 8 (2.2) fold. Also, the Fold resistance is 7 (1.0) fold in experiment [3] (SDM33: 1181, 41L, 67N, 210W, 211K, 214F, 215Y); 32 (3.9) fold in experiment [3] (SDM34: 1181, 41L, 67N, 69D, 210W, 211K, 214F, 215Y); 14 (1.4) fold in experiment [3] (SDM35: 44D, 1181, 41L, 67N, 210W, 211K, 214F, 215Y); 15 (2.1) fold in experiment [3] (SDM36: 44D, 1181, 41L, 67N, 69D, 210W, 211K, 214D, 215Y); 82 (13.5) fold in experiment [3] (SDM38: 184V, 44D, 1181, 41L, 67N, 210W, 211K, 214F, 215Y); 84 (13.9) fold in experiment [3] (SDM39: 184V, 44D, 1181, 41L, 67N, 69D, 210W, 211K, 214F, 215Y). In experiment [3] (caused by mutation 184V), the high resistance is recorded as above 62 fold.
